Patent US7422846B2, “Natural ligand for orphan G protein coupled receptor GPR86 and methods of use” (Euroscreen S.A, priority 2001, dated 2008)
Read-outs that look alike come from different tables or passages of the source.

What was measured:
[1] = target: T1, GPR86 (P2Y13) human receptor (Homo sapiens, UniProt Q9BPV8, T179M); assay: IP3 accumulation in 1321N1 cells (AG32) expressing GPR86 (P2Y13) together with Gα16; type: cell-based; design: expressed in transfected cells; host or cells: 1321N1 astrocytoma clone AG32 (stably expressing Gα16 from pERAEQ2), G418-selected; conditions: for IP3 response to nucleotides: 100 μM for 30 s, pool of G418-resistant clones expressing GPR86 and Gα16; for IP3 responses after treatment of the nucleotide solutions with CPK and CP (ATP-regenerating system): 1 mM solutions, 20 units/ml CPK, 10 mM CP, 90 min, FIG. 4B; for agonist character at human P2Y13 receptor: after creatinephosphate and creatinephosphokinase treatment; for effect on IP3 accumulation: 100 nM and 10 μM
T1 sequence (Q9BPV8 22-354 T179M): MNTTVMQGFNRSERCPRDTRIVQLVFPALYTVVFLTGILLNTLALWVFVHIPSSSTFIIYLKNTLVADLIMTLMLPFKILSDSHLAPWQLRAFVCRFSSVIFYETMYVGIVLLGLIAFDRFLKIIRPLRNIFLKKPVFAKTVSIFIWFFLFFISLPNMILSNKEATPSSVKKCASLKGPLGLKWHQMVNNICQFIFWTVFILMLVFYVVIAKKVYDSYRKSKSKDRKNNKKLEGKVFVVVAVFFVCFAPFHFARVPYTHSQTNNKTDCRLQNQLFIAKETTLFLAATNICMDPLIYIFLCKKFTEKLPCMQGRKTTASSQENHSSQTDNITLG
Method: Cells of the invention, for example, 1321N1 cells, are labelled for 24 hours with 10 μCi/ml [^3H] inositol in inositol free DMEM containing 5% FCS, antibiotics, amphotericin, sodium pyruvate and 400 μg/ml G418. Cells are incubated for 2 h in Krebs-Ringer Hepes (KRH) buffer of the following composition (124 mM NaCl, 5 mM KCl, 1.25 mM MgSO4, 1.45 mM CaCl2, 1.25 mM KH2PO4, 25 mM Hepes (pH: 7.4) and 8 mM glucose). The cells are then challenged with various nucleotides for 30 s. The incubation is stopped by the addition of an ice cold 3% perchloric acid solution. IP are extracted and separated on Dowex columns as previously described (25). 2MeSATP and ATP solutions (1 mM) are treated at room temperature with 20 units/ml CPK and 10 Mm cp for 90 min to circumvent problems arising from the contamination and degradation of triphosphate nucleotide solutions.
CHO-K1 and 1321N1 cells were transfected with the recombinant GPR86-pEFIN5 plasmid or with the plasmid alone using the FuGENE™6 transfection reagent (Roche Molecular Biochemicals). A clone called AG32 corresponding to 1321N1 cells previously transfected with pERAEQ2 plasmid encoding Gα16 (provided by Euroscreen), was transfected. The CHO-K1 and 1321N1 transfected cells were selected with 400 μg/ml G418 in complete medium (10% FBS, 100 units/ml penicillin, 100 μg/ml streptomycin and 2.5 μg/ml amphotericin B in respectively Ham's F12 or DMEM (Dulbecco's modified Eagle's) medium) two days after transfection and maintained in the same medium. The AG32 cells were maintained in the same DMEM complete medium supplemented with 500 μg/ml zeocin.
The pool of G418-resistant clones was tested for its functional IP3 response to several nucleotides, according to the method described above. The cells were challenged by various nucleotides at a concentration of 100 μM for 30 s: ATP, ADP, UTP, UDP, ITP, IDP, TDP.
Concentration-action curves for ADP, 2MeSADP and ADPβS. […] 1321N1 transfected cells were incubated in the presence of various concentrations of ADP, 2MeSADP and ADPβS for 30 s. The data represent the mean±S.D. of triplicate experimental points obtained in one representative experiment of three.
AG32 cells were seeded (200,000 cells per dish) on 35 mm (diameter) Petri dishes and labeled for 24 h with 5 μCi/ml [3H]-myoinositol in inositol free DMEM containing 5% fetal calf serum, antibiotics, amphotericin, sodium pyruvate, and 400 μg/ml of G418. Cells were incubated for 2 h in Krebs-Ringer Hepes (KRH) buffer (124 mM NaCl, 5 mM KCl, 1.25 mM MgSO4, 1.45 mM CaCl2, 1.25 mM KH2PO4, 25 mM Hepes (pH 7.4) and 8 mM D-glucose). The cells were then incubated in presence of ADP, ATP or 2MeSATP for 30 s. The incubation was stopped by the addition of 1 ml of an ice-cold 3% perchloric acid solution. Prior to the stimulation, ATP and 2MeSATP (1 mM solutions) were incubated for 90 min at room temperature with 20 units/ml creatine phosphokinase (CPK) and 10 mM creatine phosphate (CP). The reaction was stopped by addition of 10 mM iodoacetamide.
AG32 cells were seeded (200,000 cells per dish) on 35 mm (diameter) Petri dishes and labeled for 24 h with 5 μCi/ml [^3H]-myoinositol in inositol free DMEM containing 5% fetal calf serum, antibiotics, amphotericin, sodium pyruvate, and 400 μg/ml of G418. Cells were incubated for 2 h in Krebs-Ringer Hepes (KRH) buffer (124 mM NaCl, 5 mM KCl, 1.25 mM MgSO4, 1.45 mM CaCl2, 1.25 mM KH2PO4, 25 mM Hepes (pH 7.4) and 8 mM D-glucose). The cells were then incubated in presence of two different concentrations (100 nM and 10 μM) of ADP or ApnA (n=3-6) for 30 s. The incubation was stopped by the addition of 1 ml of an ice-cold 3% perchloric acid solution.
AG32 cells were seeded (200,000 cells per dish) on 35 mm (diameter) Petri dishes and labeled for 24 h with 5 μCi/ml [^3H]-myoinositol in inositol free DMEM containing 5% fetal calf serum, antibiotics, amphotericin, sodium pyruvate, and 400 μg/ml of G418.

[2] = target: T1, GPR86 (P2Y13) human receptor; assay: Western blot of phosphorylated Erk1 and Erk2 in GPR86-transfected CHO-K1 cells; type: cell-based; design: expressed in transfected cells; conditions: pertussis toxin 100 ng/ml for 18 h; agonist 1 μM, 5 or 30 minutes
Method: To investigate changes in the activation status of the MAP kinases Erk1 and Erk2 upon stimulation of the human GPR86 receptor, whole CHO-K1 transfected cell extracts were analysed by Western blotting using a specific antibody for the dually phosphorylated kinases (at Thr^202 and Tyr^204), which are the active forms of Erk. Western Blot Analysis of phosphorylated Erk1 and Erk2 proteins.
GPR86-transfected CHO-K1 cells were seeded at 1.5×10^6 cells/dish. After 24 h, the cells were serum-starved for 2 h in KRH buffer. After stimulation with the agonist, the cells were scraped in 1 ml of PBS pH 7.3 (137 mM NaCl, 2.7 mM KCl, 4.3 mM Na2HPO4.7H2O and 1.4 mM KH2PO4). The cells were recovered by centrifugation and lysed in 150 μl of Laemmli buffer (10% (w/v) glycerol, 5% (v/v) mercaptoethanol, 2.3% (w/v) SDS, 62.5 mM Tris-HCl pH 6.8). The protein concentration was determined using the method of Minamide and Bamburg (27). The same amount of protein for each condition was electrophoresed in a 12% SDS-polyacrylamide gel. Proteins were then transferred overnight at 60 V and 4° C. onto a nitrocellulose membrane using 20 mM Tris, 154 mM glycine, 20% (v/v) methanol as a transfer buffer. Immunodetection was achieved using the enhanced chemiluminescence Western blotting detection system (ECL, Amersham Phammacia Biotech) using a biotinylated-secondary mouse antibody ( 1/25,000). The monoclonal antibody specific for the dually phosphorylated forms of Erk1 and Erk2 (at Thr^202 and Tyr^204) was used at 1/1000-dilution.
In CHO-K1 cells, phosphorylated Erk1 and Erk2 had the predicted molecular mass of 44 and 42 kDa, respectively. […] GPR86-transfected CHO-K1 cells were stimulated during different times or with various concentrations of ADP and 2MeSADP or water (CONT). The effect of 100 ng/ml pertussis toxin (PTx) has been tested at 5 and 30 min in the presence of 1 μM ADP or 2MeSADP. Blotting and immunodetection were achieved as described using the enhanced chemiluminescence Western blotting detection system (ECL, Amersham Pharmacia Biotech).

[3] = AG32 cells, nucleotides pretreated with creatine phosphokinase and creatine phosphate, 30 s, read-out: EC50, stimulation of GPR86 receptor activity ([3H]IP3)
[4] = 1321N1 cells expressing GPR86 and Gα16

CSc1nc(N)c2ncn([C@@H]3O[C@H](COP(=O)(O)OP(=O)(O)OP(=O)(O)O)[C@@H](O)[C@H]3O)c2n1 [2MeSATP, 2-methylthio-ATP]
IP3 response to nucleotides [1]: responses were lost after HPLC-purification | IP3 responses after treatment of the nucleotide solutions with CPK and CP (ATP-regenerating system) [1]: abolished | agonist character at human P2Y13 receptor ([1]; AG32 cells): partial agonists | EC50 [1, 3]: 1500 ± 200 nM

Nc1ncnc2c1ncn2[C@@H]1O[C@H](COP(=O)(O)O)[C@@H](O)[C@H]1OP(=O)(O)O [A2P5P, adenosine 2′,5′-diphosphate]
IP3 response [1, 4]: No IP3 response

Nc1ncnc2c1ncn2[C@@H]1O[C@H](COP(=O)(O)O)[C@@H](OP(=O)(O)O)[C@H]1O [A3P5P, adenosine 3′,5′-diphosphate]
IP3 response [1, 4]: No IP3 response

Nc1ncnc2c1ncn2[C@@H]1O[C@H](COP(=O)(O)OS(=O)(=O)O)[C@@H](OP(=O)(O)O)[C@H]1O [A3P5PS, adenosine 3′-phosphate 5′-phosphosulfate]
IP3 response [1, 4]: No IP3 response

Nc1ncnc2c1ncn2[C@@H]1O[C@H](COP(=O)(O)OP(=O)(O)OP(=O)(O)O)[C@@H](O)[C@H]1O [ATP]
IP3 response to nucleotides [1]: responses were lost after HPLC-purification | IP3 responses after treatment of the nucleotide solutions with CPK and CP (ATP-regenerating system) [1]: abolished | agonist character at human P2Y13 receptor ([1]; AG32 cells): partial agonists | EC50 [1, 3]: 4200 ± 800 nM

Nc1ncnc2c1ncn2[C@@H]1O[C@H](COP(=O)(O)OP(=O)(O)OP(=O)(O)OC[C@H]2O[C@@H](n3cnc4c(N)ncnc43)[C@H](O)[C@@H]2O)[C@@H](O)[C@H]1O [Ap3A]
effect on IP3 accumulation ([1]; AG32 cells, 30 s): almost equal to that of ADP

Nc1ncnc2c1ncn2[C@@H]1O[C@H](COP(=O)(O)OP(=O)(O)OP(=O)(O)OP(=O)(O)OC[C@H]2O[C@@H](n3cnc4c(N)ncnc43)[C@H](O)[C@@H]2O)[C@@H](O)[C@H]1O [Ap4A]
effect on IP3 accumulation ([1]; AG32 cells, 30 s): inactive

Nc1ncnc2c1ncn2[C@@H]1O[C@H](COP(=O)(O)OP(=O)(O)OP(=O)(O)OP(=O)(O)OP(=O)(O)OC[C@H]2O[C@@H](n3cnc4c(N)ncnc43)[C@H](O)[C@@H]2O)[C@@H](O)[C@H]1O [Ap5A]
effect on IP3 accumulation ([1]; AG32 cells, 30 s): inactive

Nc1ncnc2c1ncn2[C@@H]1O[C@H](COP(=O)(O)OP(=O)(O)OP(=O)(O)OP(=O)(O)OP(=O)(O)OP(=O)(O)OC[C@H]2O[C@@H](n3cnc4c(N)ncnc43)[C@H](O)[C@@H]2O)[C@@H](O)[C@H]1O [Ap6A]
effect on IP3 accumulation ([1]; AG32 cells, 30 s): inactive

O=c1[nH]cnc2c1ncn2[C@@H]1O[C@H](COP(=O)(O)OP(=O)(O)O)[C@@H](O)[C@H]1O [IDP]
IP3 response to nucleotides [1]: induced an IP3 response

O=c1[nH]cnc2c1ncn2[C@@H]1O[C@H](COP(=O)(O)OP(=O)(O)OP(=O)(O)O)[C@@H](O)[C@H]1O [ITP]
IP3 response to nucleotides [1]: No IP3 response

Cc1cn([C@H]2C[C@H](O)[C@@H](COP(=O)(O)OP(=O)(O)O)O2)c(=O)[nH]c1=O [TDP]
IP3 response to nucleotides [1]: No IP3 response

O=c1ccn([C@@H]2O[C@H](COP(=O)(O)OP(=O)(O)O)[C@@H](O)[C@H]2O)c(=O)[nH]1 [UDP]
IP3 response to nucleotides [1]: induced an IP3 response

O=c1ccn([C@@H]2O[C@H](COP(=O)(O)OP(=O)(O)OP(=O)(O)O)[C@@H](O)[C@H]2O)c(=O)[nH]1 [UTP]
IP3 response to nucleotides [1]: No IP3 response

Poly[A]
activity on human GPR86 after creatinephosphate/creatinephosphokinase treatment ([1]; AG32 cells, 30 s, FIG. 10): still able to activate GPR86 | EC50 ([1]; AG32 cells, after creatinephosphate/creatinephosphokinase treatment, concentration in AMP equivalent, read-out: EC50, activation of GPR86 ([3H]IP3)): 205000 ± 60000 nM

adenosine 5′-O-(2-thiodiphosphate) [ADPβS]
EC50 ([1]; 1321N1 cells expressing GPR86 and Gα16, 30 s, mean±S.D. of three independent experiments, read-out: EC50, IP3 accumulation): 48.4 ± 0.4 nM

pertussis toxin
inhibition of the ADP response (IP3) ([1]; ADP 300 nM, 18 hours pretreatment with 100 ng/ml pertussis toxin, mean±range of two independent experiments): 86±8% | effect on Erk phosphorylation induced by ADP or 2-MeSADP [2]: strongly inhibited
